# Laboratory results as given in patent US11673888B2, “Bicyclic compounds as ATX inhibitors” (Hoffmann-La Roche Inc., priority 2017, dated 2023).
# Molecular target: ATX (human His-tagged) (Homo sapiens (Human), UniProt Q13822)
# Experiment: Human ATX Enzyme Inhibition Assay (fluorescence quenching, MR121 substrate)
# Format: biochemical
# Details: 30 nM ATX, 1 μM MR121 substrate, 30° C.
# Description: Autotaxin (ATX-ENPP2) cloning: cDNA was prepared from commercial human hematopoietic cells total RNA and used as template in overlapping PCR to generate a full length human ENPP2 ORF with or without a 3′-6×His tag. These full length inserts were cloned into the pcDNA3.1V5-His TOPO (Invitrogen) vector. The DNA sequences of several single clones were verified. The DNA from a correct full length clone was used to transfect Hek293 cells for verification of protein expression. The sequence of the encoded ENPP2 conforms to Swissprot entry Q13822, with or without the additional C-terminal 6×His tag. ATX Fermentation: Recombinant protein was produced by large-scale transient transfection in 20 L controlled stirred tank bioreactors (Sartorius). During cell growth and transfection, temperature, stirrer speed, pH and dissolved oxygen concentration were maintained at 37° C., 120 rpm, 7.1 and 30% DO, respectively. […] Expression was analyzed by Western Blot, enzymatic assay and/or analytical IMAC chromatography. […] Human ATX Enzyme Inhibition Assay ATX inhibition was measured by a fluorescence quenching assay using a specifically labeled substrate analogue (MR121 substrate). […]
smiles,measurement,value
O=C(c1cnc(OCC2CCOCC2)c(C2CC2)c1)N1CCc2nc(C(=O)N3CCc4[nH]nnc4C3)sc2C1 [Example 1.03],IC50,5 nM
